This is an account of results in patent publication US20170166598A1, “HETEROARYL COMPOUNDS FOR KINASE INHIBITION” (ARIAD PHARMACEUTICALS, INC., priority 2014, published 2017).

Some results are limits rather than exact numbers.

What all share (format): cell-based
The target of test [1] is T1, human EGFR exon 20 insertion ASV (V769_D770insASV) (Homo sapiens, UniProt P00533, INS769ASV).
T1 construct: expressed in transfected cells; host or cells: Ba/F3 (murine pro-B) cells transduced with lentivirus from pLVX-IRES puro
T1 sequence (P00533 with tags, fused parts or gaps INS769ASV): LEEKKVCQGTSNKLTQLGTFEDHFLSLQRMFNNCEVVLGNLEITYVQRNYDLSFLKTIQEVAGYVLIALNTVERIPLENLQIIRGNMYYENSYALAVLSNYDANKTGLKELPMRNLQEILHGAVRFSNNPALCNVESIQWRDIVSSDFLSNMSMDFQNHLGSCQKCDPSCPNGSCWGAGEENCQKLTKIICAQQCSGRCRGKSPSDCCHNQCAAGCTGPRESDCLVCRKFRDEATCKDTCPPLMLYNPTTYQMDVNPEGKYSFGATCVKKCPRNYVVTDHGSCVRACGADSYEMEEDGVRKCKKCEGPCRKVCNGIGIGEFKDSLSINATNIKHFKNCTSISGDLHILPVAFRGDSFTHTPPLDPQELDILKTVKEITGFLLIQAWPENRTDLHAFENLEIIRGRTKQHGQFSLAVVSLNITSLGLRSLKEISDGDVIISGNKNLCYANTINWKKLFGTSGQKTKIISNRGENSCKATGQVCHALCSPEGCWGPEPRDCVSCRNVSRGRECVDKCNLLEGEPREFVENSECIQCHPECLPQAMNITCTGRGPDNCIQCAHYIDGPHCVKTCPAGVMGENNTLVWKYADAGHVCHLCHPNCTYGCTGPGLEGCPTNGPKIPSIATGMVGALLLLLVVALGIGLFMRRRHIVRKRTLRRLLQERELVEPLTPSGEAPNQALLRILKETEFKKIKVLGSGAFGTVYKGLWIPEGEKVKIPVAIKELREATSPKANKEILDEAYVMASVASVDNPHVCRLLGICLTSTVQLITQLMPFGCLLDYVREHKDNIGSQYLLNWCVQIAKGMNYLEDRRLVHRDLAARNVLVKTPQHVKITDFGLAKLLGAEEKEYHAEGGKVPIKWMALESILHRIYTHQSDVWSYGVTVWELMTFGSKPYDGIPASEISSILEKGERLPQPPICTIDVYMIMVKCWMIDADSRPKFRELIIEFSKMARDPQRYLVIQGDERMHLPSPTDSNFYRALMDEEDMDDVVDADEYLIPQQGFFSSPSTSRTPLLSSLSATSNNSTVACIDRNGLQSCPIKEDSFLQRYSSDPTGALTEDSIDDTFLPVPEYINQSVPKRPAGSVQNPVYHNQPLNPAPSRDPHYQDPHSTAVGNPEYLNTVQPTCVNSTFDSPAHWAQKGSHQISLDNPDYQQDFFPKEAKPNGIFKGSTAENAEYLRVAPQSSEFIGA
Nature of the test: Ba/F3-EGFR-Exon20-ASV cell anti-proliferative assay (CellTiter 96 MTS, 72 h). Conditions: Ba/F3-EGFR-Exon20-ASV cells. The method, then:
(§1) An expression vector, pLVX-IRES puro (Clontech) coding for human EGFR exon 20 insertions NPG (H773_V774insNPG) or ASV (V769_D770insASV), was transfected into HEK293 cells by the Trans-Lentiviral ORF Packaging System (Thermo Scientific), to produce virus encoding EGFR exon 20 insertions. Ba/F3 (DSMZ) cells maintained in RPMI 1640 medium supplemented with 10% fetal bovine serum, 200 μM L-glutamine/l 200 μg/mL penicillin/200 μg/mL streptomycin (Life Technology) and 10 ng/mL IL-3 (R&D system), were infected by EGFR Exon20 virus and subsequently selected by puromycin (Life Technology) selection and IL-3 depletion. […] The anti-proliferative activity of compounds were determined as follows: BaF3-EGFR-Exon20 cells (NPG or ASV) seeded in 96 well plates (2500 cells/well) were treated with test compound (dissolved in DMSO) at a series of concentrations (4-fold dilution, top concentration: 10,000 nM). The plates were incubated for 72 h in a 37° C. incubator with 5% CO2, and the number of viable cells in each well were measured indirectly by CellTiter 96® Aqueous One Solution Cell Proliferation Assay (Promega) This assay is a colorimetric method for determining the number of viable cells through measurement of their metabolic activity by detection of enzymatic conversion of tetrazolium salts into blue formazan derivatives. Reagent (20 μL) was added into each well, and the plates were returned to the incubator for 2 h. The absorbance in each well was then measured at 490 nm using an Envision plate reader (Perkin Elmer).

Test [2] has as its target T2, human EGFR exon 20 insertion NPG (H773_V774insNPG) (Homo sapiens, UniProt P00533, INS772GNP).
T2 construct: expressed in transfected cells; host or cells: Ba/F3 (murine pro-B) cells transduced with lentivirus from pLVX-IRES puro
Nature of the test: Ba/F3-EGFR-Exon20-NPG cell anti-proliferative assay (CellTiter 96 MTS, 72 h). The conditions noted are these: Ba/F3-EGFR-Exon20-NPG cells. As to the method:
as §1

Test [3] has as its target T3, human EGFR E746-A750 deletion and T790M Mutation (Homo sapiens, UniProt P00533, DEL746-750/T790M).
T3 construct: expressed in transfected cells; host or cells: Ba/F3 (murine pro-B) cells transduced with lentivirus from pLVX-IRES puro
Nature of the test: Ba/F3-EGFR-Del/T790M cell anti-proliferative assay (CellTiter 96 MTS, 72 h). Conditions: Ba/F3-EGFR-Del/T790M cells. As to the method:
An expression vector, pLVX-IRES puro (Clontech) coding for human EGFR E746-A750 deletion and T790M Mutation, was transfected into HEK293 cells by the Trans-Lentiviral ORF Packaging System (Thermo Scientific), to produce virus encoding EGFR exon 19 deletion and T790M mutations. Ba/F3 (DSMZ) cells maintained in RPMI 1640 medium supplemented with 10% fetal bovine serum, 200 μM L-glutamine/200 μg/mL penicillin/200 μg/mL streptomycin (Life Technology) and 10 ng/mL IL-3 (R&D system), were infected by EGFR E746-A750 deletion and T790M Mutation virus and subsequently selected by puromycin (Life Technology) selection and IL-3 depletion. […] The anti-proliferative activity of compounds was determined as follows: BaF3-EGFR-Del/T790M cells seeded in 96 well plates (2500 cells/well) were treated with test compound (dissolved in DMSO) at a series of concentrations (4-fold dilution, top concentration: 10,000 nM). The plates were incubated for 72 h in a 37° C. incubator with 5% CO2, and the number of viable cells in each well were measured indirectly by CellTiter 96® Aqueous One Solution Cell Proliferation Assay (Promega; this assay is a colorimetric method for determining the number of viable cells through measurement of their metabolic activity by detection of enzymatic conversion of tetrazolium salts into blue formazan derivatives). Reagent (20 μL) was added into each well, and the plates were returned to the incubator for 2 h. The absorbance in each well was then measured at 490 nm using an Envision plate reader (Perkin Elmer).

Test [4] has as its target T4, Her2 exon 20 YVMA insertion (A775_G776ins YVMA) (Homo sapiens, UniProt P04626, INS775YVMA).
T4 construct: expressed in transfected cells; host or cells: Ba/F3 (murine pro-B) cells transduced with lentivirus from pLVX-IRES puro
Nature of the test: Ba/F3-Her2 Exon20 YVMA cell anti-proliferative assay (CellTiter 96 MTS, 72 h). Conditions: Ba/F3-Her2 Exon20 YVMA cells. An excerpt:
A compound's ability in selectively inhibiting Her2 exon 20 YVMA insertion mutations can be assessed using Ba/F3 cells, a murine pro-B cell line, which have been transduced with Her2 Exon20 YVMA insertions. An expression vector, pLVX-IRES puro (Clontech) coding for […] (A775_G776ins YVMA), was transfected into HEK293 cells by the Trans-Lentiviral ORF Packaging System (Thermo Scientific), to produce virus encoding EGFR exon 20 insertions. Ba/F3 (DSMZ) cells maintained in RPMI 1640 medium supplemented with 10% fetal bovine serum, 200 μM L-glutamine/200 μg/mL penicillin/200 μg/mL streptomycin (Life Technology) and 10 ng/mL IL-3 (R&D system), were infected by EGFR Exon20 virus and subsequently selected by puromycin (Life Technology) selection and IL-3 depletion. Ba/F3 cells expressing Her2 Exon20 YVMA insertions (named Ba/F3-Her2 Exon20 YVMA) can proliferate in the absence of IL-3. The anti-proliferative activity of compounds was determined as follows: BaF3-Her2 Exon20 YVMA cells seeded in 96 well plates (2500 cells/well) were treated with test compound (dissolved in DMSO) at a series of concentrations (4-fold dilution, top concentration: 10,000 nM). The plates were incubated for 72 h in a 37° C. incubator with 5% CO2, and the number of viable cells in each well were measured indirectly by CellTiter 96@ Aqueous One Solution Cell Proliferation Assay (Promega; this assay is a colorimetric method for determining the number of viable cells through measurement of their metabolic activity by detection of enzymatic conversion of tetrazolium salts into blue formazan derivatives). Reagent (20 μL) was added into each well, and the plates were returned to the incubator for 2 h. The absorbance in each well was then measured at 490 nm using an Envision plate reader (Perkin Elmer).

T2 sequence (P00533 with tags, fused parts or gaps INS772GNP): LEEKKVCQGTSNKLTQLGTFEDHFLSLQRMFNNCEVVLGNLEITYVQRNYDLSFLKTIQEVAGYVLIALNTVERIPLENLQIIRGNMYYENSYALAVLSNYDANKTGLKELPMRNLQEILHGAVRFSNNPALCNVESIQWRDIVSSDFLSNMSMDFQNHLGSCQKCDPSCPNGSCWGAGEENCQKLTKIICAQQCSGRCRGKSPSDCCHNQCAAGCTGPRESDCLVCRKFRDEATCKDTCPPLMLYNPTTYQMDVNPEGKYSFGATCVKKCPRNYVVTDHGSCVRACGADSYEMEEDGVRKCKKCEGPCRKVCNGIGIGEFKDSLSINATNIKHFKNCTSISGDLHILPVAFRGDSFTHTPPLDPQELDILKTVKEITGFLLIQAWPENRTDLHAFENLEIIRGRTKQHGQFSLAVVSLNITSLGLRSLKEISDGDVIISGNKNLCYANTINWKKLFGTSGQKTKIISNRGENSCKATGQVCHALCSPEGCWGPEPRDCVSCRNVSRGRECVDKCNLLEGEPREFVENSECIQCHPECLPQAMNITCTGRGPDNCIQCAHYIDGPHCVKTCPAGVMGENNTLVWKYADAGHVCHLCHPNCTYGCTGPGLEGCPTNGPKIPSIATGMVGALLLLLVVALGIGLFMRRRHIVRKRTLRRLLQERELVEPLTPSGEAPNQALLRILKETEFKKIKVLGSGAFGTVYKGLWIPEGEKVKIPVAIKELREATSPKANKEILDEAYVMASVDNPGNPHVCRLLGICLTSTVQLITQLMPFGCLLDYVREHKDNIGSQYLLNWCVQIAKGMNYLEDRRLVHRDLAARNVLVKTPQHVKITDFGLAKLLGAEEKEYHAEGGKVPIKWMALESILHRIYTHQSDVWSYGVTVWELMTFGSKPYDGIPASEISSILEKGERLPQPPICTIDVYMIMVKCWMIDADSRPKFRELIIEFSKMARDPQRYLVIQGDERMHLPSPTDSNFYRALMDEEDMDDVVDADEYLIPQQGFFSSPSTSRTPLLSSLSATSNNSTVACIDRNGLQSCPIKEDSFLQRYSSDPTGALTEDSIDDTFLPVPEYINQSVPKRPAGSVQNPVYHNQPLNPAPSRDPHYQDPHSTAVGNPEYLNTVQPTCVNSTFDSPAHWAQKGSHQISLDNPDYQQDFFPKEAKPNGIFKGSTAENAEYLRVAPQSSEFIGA
T3 sequence (P00533 with tags, fused parts or gaps DEL746-750/T790M): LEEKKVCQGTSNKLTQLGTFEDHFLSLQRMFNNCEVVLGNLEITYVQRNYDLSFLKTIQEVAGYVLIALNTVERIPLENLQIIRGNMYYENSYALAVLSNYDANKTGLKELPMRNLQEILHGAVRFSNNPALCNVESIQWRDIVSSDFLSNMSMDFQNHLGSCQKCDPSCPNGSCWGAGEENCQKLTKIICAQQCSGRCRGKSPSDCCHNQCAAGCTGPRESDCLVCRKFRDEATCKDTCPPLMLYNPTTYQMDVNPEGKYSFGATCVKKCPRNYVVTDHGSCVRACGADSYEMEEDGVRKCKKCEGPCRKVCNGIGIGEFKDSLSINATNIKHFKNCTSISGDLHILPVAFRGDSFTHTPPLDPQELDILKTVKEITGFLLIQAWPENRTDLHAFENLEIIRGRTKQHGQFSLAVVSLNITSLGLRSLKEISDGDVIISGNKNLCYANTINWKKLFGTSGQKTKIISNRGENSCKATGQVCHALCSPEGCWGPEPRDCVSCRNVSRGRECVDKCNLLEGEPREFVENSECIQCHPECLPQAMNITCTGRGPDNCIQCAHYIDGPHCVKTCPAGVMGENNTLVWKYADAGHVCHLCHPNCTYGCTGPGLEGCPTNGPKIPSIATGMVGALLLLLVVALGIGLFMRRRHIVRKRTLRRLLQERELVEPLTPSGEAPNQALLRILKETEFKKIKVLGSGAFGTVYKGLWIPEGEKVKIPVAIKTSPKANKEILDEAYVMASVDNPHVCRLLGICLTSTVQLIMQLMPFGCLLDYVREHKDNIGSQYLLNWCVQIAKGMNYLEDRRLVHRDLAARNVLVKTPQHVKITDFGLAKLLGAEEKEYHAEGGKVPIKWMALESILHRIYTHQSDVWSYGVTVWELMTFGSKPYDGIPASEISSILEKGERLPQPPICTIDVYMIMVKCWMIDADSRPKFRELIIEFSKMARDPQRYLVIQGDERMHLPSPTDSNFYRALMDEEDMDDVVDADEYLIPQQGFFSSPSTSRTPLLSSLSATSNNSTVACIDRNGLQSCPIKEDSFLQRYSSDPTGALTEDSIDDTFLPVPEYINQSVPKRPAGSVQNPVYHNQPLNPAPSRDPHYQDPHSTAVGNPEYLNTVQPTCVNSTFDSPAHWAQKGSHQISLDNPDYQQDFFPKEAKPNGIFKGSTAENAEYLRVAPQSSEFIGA
T4 sequence (P04626 with tags, fused parts or gaps INS775YVMA): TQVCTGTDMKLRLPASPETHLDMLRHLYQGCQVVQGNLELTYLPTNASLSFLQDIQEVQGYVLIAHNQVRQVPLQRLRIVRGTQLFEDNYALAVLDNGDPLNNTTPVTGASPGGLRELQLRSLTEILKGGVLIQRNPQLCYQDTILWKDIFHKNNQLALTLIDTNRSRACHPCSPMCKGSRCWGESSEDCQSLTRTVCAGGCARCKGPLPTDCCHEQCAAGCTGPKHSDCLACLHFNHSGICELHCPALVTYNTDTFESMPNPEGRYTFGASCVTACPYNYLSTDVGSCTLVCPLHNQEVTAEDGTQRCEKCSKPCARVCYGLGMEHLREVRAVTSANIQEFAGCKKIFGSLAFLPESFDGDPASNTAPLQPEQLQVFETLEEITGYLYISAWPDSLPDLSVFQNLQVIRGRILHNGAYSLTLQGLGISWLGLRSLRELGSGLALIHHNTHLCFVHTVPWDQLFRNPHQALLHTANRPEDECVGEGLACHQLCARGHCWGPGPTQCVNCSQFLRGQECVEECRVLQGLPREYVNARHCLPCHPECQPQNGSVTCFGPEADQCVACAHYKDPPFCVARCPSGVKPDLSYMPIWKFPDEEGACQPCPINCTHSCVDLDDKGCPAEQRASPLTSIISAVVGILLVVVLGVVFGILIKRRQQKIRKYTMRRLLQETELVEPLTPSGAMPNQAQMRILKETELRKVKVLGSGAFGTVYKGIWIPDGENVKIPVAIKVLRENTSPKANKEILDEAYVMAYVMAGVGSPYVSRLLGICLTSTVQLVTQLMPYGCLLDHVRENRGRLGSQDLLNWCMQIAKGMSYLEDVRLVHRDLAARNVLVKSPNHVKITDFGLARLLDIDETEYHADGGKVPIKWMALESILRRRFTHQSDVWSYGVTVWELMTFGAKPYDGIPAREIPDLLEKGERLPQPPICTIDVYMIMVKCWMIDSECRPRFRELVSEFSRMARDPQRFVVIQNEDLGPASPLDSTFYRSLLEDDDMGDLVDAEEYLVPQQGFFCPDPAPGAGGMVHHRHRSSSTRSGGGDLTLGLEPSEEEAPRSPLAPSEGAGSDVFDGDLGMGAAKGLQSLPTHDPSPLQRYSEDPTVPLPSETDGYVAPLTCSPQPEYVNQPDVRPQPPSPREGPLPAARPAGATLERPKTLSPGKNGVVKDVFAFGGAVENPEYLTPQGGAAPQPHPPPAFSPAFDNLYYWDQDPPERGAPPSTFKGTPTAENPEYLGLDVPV

Take `C=CC(=O)Nc1cc(Nc2ncc(-c3cn[nH]c3)c(-c3cn4c5c(cccc35)CCC4)n2)c(OC)cc1N(C)CCN(C)C` [Example 85, N-(5-((4-(5,6-dihydro-4H-pyrrolo[3,2,1-ij]quinolin-1-yl)-5-(1H-pyrazol-4-yl)pyrimidin-2-yl)amino)-2-((2-(dimethylamino)ethyl)(methyl)amino)-4-methoxyphenyl)acrylamide]: the IC50 in test [1], in test [2] and in test [4] was less than 100 nM in each case. In test [3], the “EGFR exon 19 deletion and exon 20 T790M mutation IC50” value is “A (IC50 value for the indicated mutant below about 100 nM)”.
`C=CC(=O)Nc1cc(Nc2ncc(C(=O)NC)c(-c3cn4c5c(cccc35)CCC4)n2)c(OC)cc1N(C)CCN(C)C` [Example 54, 2-((5-acrylamido-4-((2-(dimethylamino)ethyl)(methyl)amino)-2-methoxyphenyl)amino)-4-(5,6-dihydro-4H-pyrrolo[3,2,1-ij]quinolin-1-yl)-N-methylpyrimidine-5-carboxamide]: the figures for the IC50 in test [1], in test [2] and in test [4] were 100 to 500 nM, less than 100 nM and 100 to 500 nM, respectively. The “EGFR exon 19 deletion and exon 20 T790M mutation IC50” value in test [3] was “A (IC50 value for the indicated mutant below about 100 nM)”.
As for `C=CC(=O)Nc1cc(Nc2ncc(-c3nccn3C)c(-c3cn4c5c(cccc35)CCC4)n2)c(OC)cc1N(C)CCN(C)C` [Example 98], the IC50 was less than 100 nM in test [1], less than 100 nM in test [2] and 100 to 500 nM in test [4]. In addition, in test [3], the “EGFR exon 19 deletion and exon 20 T790M mutation IC50” value is on record as “A (IC50 value for the indicated mutant below about 100 nM)”.
With `C=CC(=O)Nc1cc(Nc2ncc(-c3nc(C)no3)c(-c3cn4c5c(cccc35)CCC4)n2)c(OC)cc1N(C)CCN(C)C` [Example 86], the IC50 in test [1], in test [2] and in test [4] was less than 100 nM throughout. Moreover, in test [3], the “EGFR exon 19 deletion and exon 20 T790M mutation IC50” value was “A (IC50 value for the indicated mutant below about 100 nM)”.
In the case of `C=CC(=O)Nc1cc(Nc2ncc(C#N)c(-c3cn4c5c(cccc35)N(C)C(=O)C4)n2)c(OC)cc1N1CC[C@@H](N(C)C)C1` [Example 55, (R)-N-(5-((5-cyano-4-(1-methyl-2-oxo-2,3-dihydro-1H-pyrrolo[1,2,3-de]quinoxalin-6-yl)pyrimidin-2-yl)amino)-2-(3-(dimethylamino)pyrrolidin-1-yl)-4-methoxyphenyl)acrylamide], the figures for the IC50 in test [1], in test [2] and in test [4] were 100 to 500 nM, less than 100 nM and 100 to 500 nM, respectively. In addition, the “EGFR exon 19 deletion and exon 20 T790M mutation IC50” value in test [3] is “A (IC50 value for the indicated mutant below about 100 nM)”.
As to `C=CC(=O)Nc1cc(Nc2ncc(CO)c(-c3cn4c5c(cccc35)CCC4)n2)c(OC)cc1N(C)CCN(C)C` [Example 70, N-(5-((4-(5,6-dihydro-4H-pyrrolo[3,2,1-ij]quinolin-1-yl)-5-(hydroxymethyl)pyrimidin-2-yl)amino)-2-((2-(dimethylamino)ethyl)-(methyl)amino)-4-methoxyphenyl)acrylamide], the IC50 in test [1] is less than 100 nM; in test [2], less than 100 nM; in test [4], 100 to 500 nM. For the same compound, in test [3], the “EGFR exon 19 deletion and exon 20 T790M mutation IC50” value is on record as “A (IC50 value for the indicated mutant below about 100 nM)”.
In the case of `C=CC(=O)Nc1cc(Nc2ncc(CC)c(-c3cn4c5c(cccc35)CCC4)n2)c(OC)cc1N(C)CCN(C)C` [Example 2, N-(5-((4-(5,6-dihydro-4H-pyrrolo[3,2,1-ij]quinolin-1-yl)-5-ethylpyrimidin-2-yl)amino)-2-((2-(dimethylamino)ethyl)(methyl)amino)-4-methoxyphenyl)acrylamide], the values for the IC50 in test [1], in test [2] and in test [4] were less than 100 nM, less than 100 nM and 100 to 500 nM, respectively. The “EGFR exon 19 deletion and exon 20 T790M mutation IC50” value in test [3] is on record as “A (IC50 value for the indicated mutant below about 100 nM)”.
Turning to `C=CC(=O)Nc1cc(Nc2ncc(-c3cnn(C)c3C)c(-c3cn4c5c(cccc35)CCC4)n2)c(OC)cc1N(C)CCN(C)C` [Example 102], the IC50 in test [1], in test [2] and in test [4] was less than 100 nM in each case. Further, in test [3], the “EGFR exon 19 deletion and exon 20 T790M mutation IC50” value is “A (IC50 value for the indicated mutant below about 100 nM)”.
For the compound `C=CC(=O)Nc1cc(Nc2ncc(Cl)c(-c3cn4c5c(cccc35)OCC4)n2)c(OC)cc1N(C)CC1CCCN1C` (centres unmarked) [Example 8, N-(5-((5-chloro-4-(2,3-dihydro-[1,4]oxazino[2,3,4-hi]indol-6-yl)pyrimidin-2-yl)amino)-4-methoxy-2-(methyl((1-methylpyrrolidin-2-yl)methyl)amino)phenyl)acrylamide], the figures for the IC50 in test [1], in test [2] and in test [4] were less than 100 nM, less than 100 nM and 100 to 500 nM, respectively. Besides, the “EGFR exon 19 deletion and exon 20 T790M mutation IC50” value in test [3] is “A (IC50 value for the indicated mutant below about 100 nM)”.
Consider `C=CC(=O)Nc1cc(Nc2ncc(C#N)c(-c3cn4c5c(cccc35)N(C)C(=O)C4)n2)c(OC)cc1N(C)CCN(C)C` [Example 52, N-(5-((5-cyano-4-(1-methyl-2-oxo-2,3-dihydro-1H-pyrrolo[1,2,3-de]quinoxalin-6-yl)pyrimidin-2-yl)amino)-2-((2-(dimethylamino)ethyl)(methyl)amino)-4-methoxyphenyl)acrylamide], for which the IC50 in test [1], in test [2] and in test [4] was less than 100 nM in each case. Also, in test [3], the “EGFR exon 19 deletion and exon 20 T790M mutation IC50” value is listed as “A (IC50 value for the indicated mutant below about 100 nM)”.
Regarding `C=CC(=O)Nc1cc(Nc2ncc(C(CC)OC)c(-c3cn4c5c(cccc35)CCC4)n2)c(OC)cc1N(C)CCN(C)C` (centres unmarked) [Example 87], the half-maximal inhibitory concentration (IC50) is 100 to 500 nM in test [1], less than 100 nM in test [2] and 100 to 500 nM in test [4]. For the same compound, the “EGFR exon 19 deletion and exon 20 T790M mutation IC50” value in test [3] was “A (IC50 value for the indicated mutant below about 100 nM)”.
As to `C=CC(=O)Nc1cc(Nc2ncc(Cl)c(-c3cn4c5c(cccc35)CCC4)n2)c(OC)cc1N(C)CCN1CCCC1` [Example 24, N-(5-((5-chloro-4-(5,6-dihydro-4H-pyrrolo[3,2,1-ij]quinolin-1-yl)pyrimidin-2-yl)amino)-4-methoxy-2-(methyl(2-(pyrrolidin-1-yl)ethyl)amino)phenyl)acrylamide], the IC50 in test [2] is less than 100 nM; in test [4], 100 to 500 nM. Besides, the “EGFR exon 19 deletion and exon 20 T790M mutation IC50” value in test [3] is reported as “A (IC50 value for the indicated mutant below about 100 nM)”.

For orientation: IC50 means the concentration that inhibits the measured activity by half.
